From patent US9550976B2, “Methods for compact aggregation of dermal cells” (THE TRUSTEES OF COLUMBIA UNIVERSITY IN THE CITY OF NEW YORK, priority 2006, dated 2017)

Columns and labels:
[1] = tested on: hair follicle morphogenesis in embryonic skin cultures; test: Mouse embryonic skin organ culture, effects of reduced HA on hair follicle morphogenesis; type: cell-based; details: for in vivo skin stage to which the cultured skin / follicles correspond: after 72 hr in culture of 14.5 dpc skin, histology and syndecan-1 pattern
Procedure: To study the effects of HA misexpression in the development of a HF, an embryonic skin organ culture model was utilized. To assess how representative this model was for investigating the role of HA distribution in vivo, the expression of CD44 and HA in the cultured embryonic skin was first investigated. Embryonic skin cultures were established using pre-hair follicle initiation (14.5 dpc) skin and were incubated for 72 hrs. The cultured skin hair placodes became visible after 24 hr in culture. After 72 hr, skins were removed from culture, sectioned, and the expression of both HA and CD44 were assessed (FIG. 19). The dermal condensate was negative for HA staining (red) while expressing CD44 (green). Expression of both proteins in the HF of the cultured backskin was virtually indiscernible from that of 16.5 dpc back skin in vivo (FIG. 19). The effects of HA synthesis downregulation of hair follicle morphogenesis was investigated. Embryonic skin was cultured for 72 hrs in the presence of BSA (control) or one of two HAS inhibitors, leflunomide (Lef) (50 nM) or 4-methylumbelliferone (30 mM). In the presence of BSA, CD44 was localized predominantly to the dermal condensate, while HA remained absent from the dermal condensate (FIG. 20). […] To ascertain whether this reduction was due to an actual inhibitory effect of Lef on hair follicle morphogenesis and development, cultured skin from all treatments and control groups were enzymatically split and the separated epidermis inverted to allow the visualization of the developing epidermal hair germs. […] To explore the effects of a global degradation of HA protein on hair follicle morphogenesis within the skin cultures, embryonic skin was cultured for 72 hrs in the presence of either BSA (control) or hyaluronanase (HAase) (25 units/ml). […] Following 72 hrs in culture, embryonic skin from the four treatments described above were cryo-embedded, sectioned, and stained with hematoxylin and eosin (H&E) for histological study. […] After 72 hr in culture, follicles corresponded to those found in 14.5 dpc skin in vivo, both histologically and in their syndecan-1 expression patterns (FIG. 22).

[2] = tested on: hair follicle formation; details: whole skin organ culture; as previously shown (Kashiwagi 1997); cited from earlier work
[3] = Lef 50 nM, 4-methylumbelliferone 30 mM
[4] = embryonic skin cultured 72 hrs, Lef 50 nM, 4-methylumbelliferone 30 mM, HAase 25 units/ml
[5] = embryonic skin cultured 72 hrs, Lef 50 nM, 4-methylumbelliferone 30 mM, HAase 25 units/ml, vs BSA control

| Molecule | in vivo skin stage to which the cultured skin / follicles correspond [1, 3] | Syndecan-1 expression (marker of the dermal condensation) ([1]; embryonic skin cultured 72 hrs, 4-methylumbelliferone 30 mM, HAase 25 units/ml) | histology (H&E) of cultured skin [1, 4] | number of visible follicles on the surface of the skin [1, 5] | size and number of epidermal hair germs on the inverted, enzymatically separated epidermis ([1]; embryonic skin cultured 72 hrs, Lef 50 nM, HAase 25 units/ml, vs BSA control) | hair follicle formation [2] |
| --- | --- | --- | --- | --- | --- | --- |
| Cc1cc(=O)oc2cc(O)ccc12 [4-methylumbelliferone] | 16.5 dpc | normal hair follicle development | indistinguishable from the control skin | no effect on the number of visible follicles | – | – |
| Cc1oncc1C(=O)Nc1ccc(C(F)(F)F)cc1 [Lef, leflunomide] | 14.5 dpc | – | inhibition of follicle development | reduction in the number of visible follicle on the surface of the skin | smaller and sparser than those of the control | – |
| EGF: growth factor used to inhibit hair follicle formation in skin organ culture (NSYPGCPSSYDGYCLNGGVCMHIESLDSYTCNCVIGYSGDRCQTRDLRWWELR; UniProt P01132 977-1029, looked up) | – | – | – | – | – | completely inhibited |
